In US20260125374A1, “PI3K-ALPHA INHIBITORS AND METHODS OF MAKING AND USING THE SAME” (Relay Therapeutics, Inc., priority 2021, published 2026):

Test: Salt screening (XRPD, chiral purity of hits)
Type: physicochemical
Details: for Chiral purity of salt screening solid: slurry
Description: Based on the pKa of I-1 free form, 23 counter ions were selected as salt/cocrystal forming agents. Methanol, acetone and isopropyl acetate were used as screening solvents. 1.0 equivalent of selected counter ions/coformers was applied for salt screening. Slurry equilibration, slow evaporation and anti-solvent addition were used as crystallization methods. In total, about 70 screening experiments were conducted.
About 50 mg of I-1 Form A were added to a suitable amount of solvent and 1.0 equivalent of counter ions were added under stirring at 50° C. for 2 hours and then at 25° C. for at least 12 hours. MeOH, acetone and IPAc were used as screening solvents.
Obtained suspensions were taken out and centrifuged. Solids obtained were analyzed by XRPD and salt screening results were summarized in Table 5.1, Table 5.2, and Table 5.3.

[1] = 1.0 equiv. naphthalene-1,5-disulfonic acid, MeOH
[2] = 1.0 equiv. naphthalene-1,5-disulfonic acid, MeOH/water(9:1, v/v)
[3] = 1.0 equiv. naphthalene-1,5-disulfonic acid, MeOH, dried at 50° C. for 21 h
[4] = crystalline hits of salt screening, listed as I-1 Form A

## N#Cc1c(-c2cc(NC(=O)c3cc(F)cc(C(F)(F)F)c3)c3c(c2)C(=O)N[C@H]3c2cc(F)ccc2Cl)ccc2ncnn12 [Compound I-1, (R)-N-(3-(2-chloro-5-fluorophenyl)-6-(5-cyano-[1,2,4]triazolo[1,5-a]pyridin-6-yl)-1-oxoisoindolin-4-yl)-3-fluoro-5-(trifluoromethyl)benzamide]
1.0 equiv. L-tartaric acid, Acetone
  Salt screening result (slurry crystallization): thin suspension
1.0 equiv. L-tartaric acid, Acetone/MTBE
  Salt screening result (anti-solvent): −(I-1 Form B) (Free form, counter ions, or physical mixtures)
1.0 equiv. L-tartaric acid, Isopropyl acetate
  Salt screening result (slurry crystallization): − (I-1 Form A) (Free form, counter ions, or physical mixtures)
1.0 equiv. L-tartaric acid, MeOH
  Salt screening result (slurry crystallization): − (I-1 Form A) (Free form, counter ions, or physical mixtures)
1.0 equiv. citric acid, Acetone
  Salt screening result (slurry crystallization): thin suspension
1.0 equiv. citric acid, Acetone/MTBE
  Salt screening result (anti-solvent): −(I-1 Form B) (Free form, counter ions, or physical mixtures)
1.0 equiv. citric acid, Isopropyl acetate
  Salt screening result (slurry crystallization): − (I-1 Form A) (Free form, counter ions, or physical mixtures)
1.0 equiv. citric acid, MeOH
  Salt screening result (slurry crystallization): − (I-1 Form A) (Free form, counter ions, or physical mixtures)
1.0 equiv. fumaric acid, Acetone
  Salt screening result (slurry crystallization): − (physical mixtures (Free form, counter ions, or physical mixtures)
1.0 equiv. fumaric acid, Isopropyl acetate
  Salt screening result (slurry crystallization): − (physical mixtures (Free form, counter ions, or physical mixtures)
1.0 equiv. fumaric acid, MeOH
  Salt screening result (slurry crystallization): − (I-1 Form A) (Free form, counter ions, or physical mixtures)
1.0 equiv. gentisic acid, Acetone
  Salt screening result (slurry crystallization): thin suspension
1.0 equiv. gentisic acid, Acetone/MTBE
  Salt screening result (anti-solvent): −(I-1 Form B) (Free form, counter ions, or physical mixtures)
1.0 equiv. gentisic acid, Isopropyl acetate
  Salt screening result (slurry crystallization): − (I-1 Form A) (Free form, counter ions, or physical mixtures)
1.0 equiv. gentisic acid, MeOH
  Salt screening result (slurry crystallization): − (I-1 Form A) (Free form, counter ions, or physical mixtures)
1.0 equiv. isonicotinamide, Acetone
  Salt screening result (slurry crystallization): thin suspension
1.0 equiv. isonicotinamide, Acetone/MTBE
  Salt screening result (anti-solvent): −(I-1 Form B) (Free form, counter ions, or physical mixtures)
1.0 equiv. isonicotinamide, Isopropyl acetate
  Salt screening result (slurry crystallization): − (physical mixtures (Free form, counter ions, or physical mixtures)
1.0 equiv. isonicotinamide, MeOH
  Salt screening result (slurry crystallization): − (I-1 Form A) (Free form, counter ions, or physical mixtures)
1.0 equiv. maleic acid, Acetone
  Salt screening result (slurry crystallization): thin suspension
1.0 equiv. maleic acid, Acetone/MTBE
  Salt screening result (anti-solvent): −(I-1 Form B) (Free form, counter ions, or physical mixtures)
1.0 equiv. maleic acid, Isopropyl acetate
  Salt screening result (slurry crystallization): − (I-1 Form A) (Free form, counter ions, or physical mixtures)
1.0 equiv. maleic acid, MeOH
  Salt screening result (slurry crystallization): − (I-1 Form A) (Free form, counter ions, or physical mixtures)
1.0 equiv. malonic acid, Acetone
  Salt screening result (slurry crystallization): thin suspension
1.0 equiv. malonic acid, Acetone/MTBE
  Salt screening result (anti-solvent): −(I-1 Form B) (Free form, counter ions, or physical mixtures)
1.0 equiv. malonic acid, Isopropyl acetate
  Salt screening result (slurry crystallization): − (I-1 Form A) (Free form, counter ions, or physical mixtures)
1.0 equiv. malonic acid, MeOH
  Salt screening result (slurry crystallization): − (I-1 Form A) (Free form, counter ions, or physical mixtures)
1.0 equiv. methanesulfonic acid, Acetone
  Salt screening result (slurry crystallization): thin suspension
1.0 equiv. methanesulfonic acid, IPAc/MTBE
  Salt screening result (anti-solvent): thin suspension
1.0 equiv. methanesulfonic acid, Isopropyl acetate
  Salt screening result (slurry crystallization): thin suspension
1.0 equiv. naphthalene-1,5-disulfonic acid, Acetone
  Salt screening result (slurry crystallization): thin suspension
1.0 equiv. naphthalene-1,5-disulfonic acid, Isopropyl acetate, 3 days
  Salt screening result (slurry crystallization): 3 days: AF;
1.0 equiv. naphthalene-1,5-disulfonic acid, Isopropyl acetate, for another 3 days
  Salt screening result (slurry crystallization): 3 days: AF
[1]
  Salt screening result (slurry crystallization): + (I-1 Form A ) (Salt hits)
  Chiral purity of salt screening solid: Chiral purity: 100%
[2]
  Salt screening result (slurry crystallization): − (physical mixtures of (Free form, counter ions, or physical mixtures)
  Chiral purity of salt screening solid: Chiral purity: 99.3%
[3]
  Crystallinity of salt screening solid: low crystallinity
  Chiral purity of salt screening solid: Chiral purity: 100%
1.0 equiv. naphthalene-2-sulfonic acid, Isopropyl acetate
  Salt screening result (slurry crystallization): thin suspension
1.0 equiv. nicotinamide, Acetone
  Salt screening result (slurry crystallization): thin suspension
1.0 equiv. nicotinamide, Acetone/MTBE
  Salt screening result (anti-solvent): −(I-1 Form B) (Free form, counter ions, or physical mixtures)
1.0 equiv. nicotinamide, Isopropyl acetate
  Salt screening result (slurry crystallization): − (physical mixtures (Free form, counter ions, or physical mixtures)
1.0 equiv. nicotinamide, MeOH
  Salt screening result (slurry crystallization): − (I-1 Form A (Free form, counter ions, or physical mixtures)
1.0 equiv. nicotinic acid, Acetone
  Salt screening result (slurry crystallization): − (physical mixtures (Free form, counter ions, or physical mixtures)
1.0 equiv. nicotinic acid, Isopropyl acetate
  Salt screening result (slurry crystallization): − (physical mixtures (Free form, counter ions, or physical mixtures)
1.0 equiv. nicotinic acid, MeOH
  Salt screening result (slurry crystallization): − (physical mixtures (Free form, counter ions, or physical mixtures)
1.0 equiv. phosphoric acid, Acetone
  Salt screening result (slurry crystallization): thin suspension
1.0 equiv. phosphoric acid, Acetone/MTBE
  Salt screening result (anti-solvent): −(I-1 Form B) (Free form, counter ions, or physical mixtures)
1.0 equiv. phosphoric acid, Isopropyl acetate
  Salt screening result (slurry crystallization): − (I-1 Form A) (Free form, counter ions, or physical mixtures)
1.0 equiv. phosphoric acid, MeOH
  Salt screening result (slurry crystallization): − (I-1 Form A) (Free form, counter ions, or physical mixtures)
1.0 equiv. sodium hydroxide, Acetone
  Salt screening result (slurry crystallization): thin suspension
1.0 equiv. sodium hydroxide, Isopropyl acetate, for another 3 days
  Salt screening result (slurry crystallization): another 3 days: AF
1.0 equiv. sodium hydroxide, MeOH
  Salt screening result (slurry crystallization): clear solution
1.0 equiv. sulfuric acid, Acetone
  Salt screening result (slurry crystallization): thin suspension
1.0 equiv. sulfuric acid, Acetone/MTBE
  Salt screening result (anti-solvent): thin suspension
1.0 equiv. sulfuric acid, Isopropyl acetate
  Salt screening result (slurry crystallization): thin suspension
1.0 equiv. sulfuric acid, MeOH
  Salt screening result (slurry crystallization): − (I-1 Form A) (Free form, counter ions, or physical mixtures)
1.0 equiv. theobromine, Acetone
  Salt screening result (slurry crystallization): − (physical mixtures (Free form, counter ions, or physical mixtures)
1.0 equiv. theobromine, Isopropyl acetate
  Salt screening result (slurry crystallization): − (physical mixtures (Free form, counter ions, or physical mixtures)
1.0 equiv. theobromine, MeOH
  Salt screening result (slurry crystallization): − (physical mixtures (Free form, counter ions, or physical mixtures)
1.0 equiv. theophylline, Acetone
  Salt screening result (slurry crystallization): − (physical mixtures (Free form, counter ions, or physical mixtures)
1.0 equiv. theophylline, Isopropyl acetate
  Salt screening result (slurry crystallization): − (physical mixtures (Free form, counter ions, or physical mixtures)
1.0 equiv. theophylline, MeOH
  Salt screening result (slurry crystallization): − (physical mixtures (Free form, counter ions, or physical mixtures)
Free form, Acetone
  Salt screening result (slurry crystallization): − (I-1 Form A) (Free form, counter ions, or physical mixtures)
Free form, Isopropyl acetate
  Salt screening result (slurry crystallization): − (I-1 Form A) (Free form, counter ions, or physical mixtures)
Free form, MeOH
  Salt screening result (slurry crystallization): − (I-1 Form A) (Free form, counter ions, or physical mixtures)
[4]
  Chiral purity (by HPLC): 99.2%
  Crystallinity (By XRPD): High
